Experimental data: US9072301B2 (priority 2012, dated 2015)

| melting point [°C] | Structure (SMILES) |
| --- | --- |
| 159 | CC1OC(=O)c2ncnc(NCCc3ccc(Oc4ccnc(C(F)(F)F)c4)cc3F)c21 (centres unmarked) |
| 178 | COc1cc(CCNc2ncnc3cnn(C)c23)ccc1Oc1ccnc(C(F)(F)F)c1 [I-10, N-[2-[3-methoxy-4-[[2-(trifluoromethyl)-4-pyridyl]oxy]phenyl]ethyl]-1-methyl-pyrazolo[4,3-d]pyrimidin-7-amine] |
